Assays:
[1] = Gravimetric Vapour Sorption (GVS); type: physicochemical
Description: In some embodiments, sorption isotherms were obtained using a SMS DVS Intrinsic moisture sorption analyzer, controlled by SMS Analysis Suite software. The sample temperature was maintained at 25° C. by the instrument controls. The humidity was controlled by mixing streams of dry and wet nitrogen, with a total flow rate of 200 ml·min−1. The relative humidity was measured by a calibrated Rotronic probe (dynamic range of 1.0-100% RH), located near the sample. The weight change (mass relaxation) of the sample as a function of % RH was constantly monitored by the microbalance (accuracy ±0.005 mg). Typically 5-20 mg of sample was placed in a tared mesh stainless steel basket under ambient conditions. The sample was loaded and unloaded at 40% RH and 25° C. (typical room conditions). A moisture sorption isotherm was performed as outlined below (2 scans giving 1 complete cycle). The standard isotherm was performed at 25° C. at 10% RH intervals over a 0.5-90% RH range.
The sample was recovered after completion of the isotherm and re-analyzed by XRPD.

[2] = Solid form stability on storage at elevated relative humidity (XRPD); type: physicochemical
Excerpt: X-Ray powder diffraction patterns were collected on a Bruker AXS C2 GADDS or Bruker AXS D8 Advance diffractometer.
X-Ray Powder Diffraction patterns were collected on a Bruker D8 diffractometer using Cu Kα radiation (40 kV, 40 mA), θ−2θ goniometer, and divergence of V4 and receiving slits, a Ge monochromator and a Lynxeye detector. The instrument was performance checked using a certified Corundum standard (NIST 1976). The software used for data collection was Diffrac Plus XRD Commander v2.5.0 and the data were analyzed and presented using Diffrac Plus EVA v 11.0.0.2 or v 13.0.0.2. Samples were run under ambient conditions as flat plate specimens using powder. Approximately 5 mg of the sample was gently packed into a cavity cut into polished, zero-background (510) silicon wafer. The sample was rotated in its own plane during analysis. The details of the data collection are: • Angular range: 2 to 42° 2θ • Step size: 0.05° 2θ • Collection time: 0.5 s·step^−1

[3] = Solubility assessment at various pH levels (solubility profile); type: physicochemical; conditions: 0.15M NaCl solution, saline or isotonic, thermodynamic from solid
Description: For solubility assessment at various pH levels sufficient material to produce a maximum concentration of 10 mg·ml^−1 of API was treated with 0.15M NaCl solution and then the pH adjusted with HCl or NaOH solutions to achieve the desired pH levels. The suspensions were allowed to equilibrate for 2 hours and the pH measured and adjusted if necessary. Suspensions were then filtered and the amount of dissolved API quantified by HPLC against a standard reference solution.
Analysis was performed on an Agilent HP1100 series system equipped with a diode array detector and using ChemStation software vB.02.01-SR1.
The solubility of both the free acid and amorphous sodium salt was determined at a range of pH values.

[4] = Metabolites generated in vivo (rat bile and urine, rat and dog plasma); conditions: Compound 2 IV 2 mg/kg, bile duct cannulated rats
Description: Compound 2 (2 mg/kg) was administered intravenously (IV) to fasted rats as a solution in 0.9% saline via a bolus injection into the jugular vein (2 mg/mL; […]).
Rats with surgically placed bile duct and jugular vein cannula were purchased from Charles River Laboratories and allowed to acclimate for 2 days. Compound 2 was intravenously dosed (2 mg/kg) to three rats as a solution in 0.9% saline (2 mg/mL; 1 mL/kg). Bile samples were collected at time-points 0-2, 2-5 and 5-8, and urine samples were collected at time-points 0-4 and 4-8 hrs post-dose in 8 mL scintillation vials and stored at −40° C. until analysis.
Concentrations of Compound 1 in rat plasma were determined by LC-MS/MS after protein precipitation. Rat plasma (100 μL) was treated with 400 μL of internal standard solution (ISTD, buspirone in acetonitrile containing 1.5% acetic acid) to precipitate proteins. Samples were vortexed and then centrifuged for 10 min at approximately 4,000 rpm (3700×g) at 4° C. (Beckman centrifuge, Brea, Calif.).
(§1) Parent/metabolite analysis was conducted in the positive ion mode (ESI) by multiple reaction monitoring of parent. The mobile phases contained 10 mM ammonium acetate in water with 0.05% formic acid (solvent A) and 10 mM ammonium acetate in 50% acetonitrile/50% methanol with 0.05% formic acid (solvent B). For Compound 1, the flow rate was maintained at 1 mL/min and the total run time was 2.5 min. Analytes were separated on a YMC ODS-AQ column (2.1×150 mm; 3 μm) and eluted with a linear gradient as follows: • 1. mobile phase was held for 0.5 min at 5% B, • 2. B was increased from 5% to 95% over the next 0.2 min, • 3. B was held constant for 1.3 min at 95%, and • 4. B was returned to the initial gradient conditions.
For metabolite quantitation, the flow rate was maintained at 0.25 mL/min and the total run time was 60 min. Analytes were separated using a linear gradient as follows: • 1. mobile phase was held for 5 min at 5% B, • 2. B was increased from 5% to 95% over the next 45 min. • 3. B was held constant for 5 min at 95%, and • 4. B was returned to the initial gradient conditions

[5] = Metabolite identification in hepatocytes; type: in vitro ADME, rat, dog, monkey, human; conditions: 30 μM Compound 1
Description: Rat, dog, monkey, or human hepatocytes were thawed according to the supplier's instructions. Cells were counted using the Trypan Blue method, and then diluted to 1×10^6 viable cells/ml with KB medium. Compound 1 was tested at 30 μM and incubated for up to 2 hours in rat hepatocytes and 4 hours in dog, monkey or human hepatocytes at 37° C. Reactions were terminated with addition of 3 times incubation volume of acetonitrile, centrifuged, and supernatants were transferred, nitrogen blow dried and reconstituted in 50% acetonitrile in water for LC/MS analysis.
(§2) LC/MS/MS analysis was carried out with a Sciex API-4000Qtrap tandem mass spectrometer (Applied Biosystems/Life Technologies, Carlsbad, Calif.) interfaced to a high-performance liquid chromatography system consisting of an Agilent 1200 series pump (Foster City, Calif.) and a LEAP Technologies PAL autoinjector (Carrboro, N.C.).
as §1
(§3) GSH adducts were investigated in microsomes, hepatocytes and rat bile using several methods including the neutral loss of pyroglutamate (129 Da) as well as a precursor ion scans of Compound 1 (105 Da, 318 Da and 438 Da).
For metabolite quantitation, the flow rate was maintained at 0.25 mL/min and the total run time was 60 min. Analytes were separated using a linear gradient as follows: • 1. mobile phase was held for 5 min at 5% B, • 2. B was increased from 5% to 95% over the next 45 min. • 3. […]

[6] = Metabolite identification in liver microsomes; type: in vitro ADME, rat, dog, monkey, human; conditions: 30 μM Compound 1, 60 minutes
Description: To determine the qualitative metabolic profile, 30 μM of Compound 1 was incubated aerobically with rat, dog, monkey, or human liver microsomes (1 mg/mL). The incubations were performed in phosphate buffer at pH 7.4, 37° C., with the reaction initiated by the addition of P-NADPH, GSH and/or UDPGA (1, 5 and 2 mM final concentration, respectively). The reaction was terminated by the addition of 3 times incubation volume of acetonitrile after 60 minutes. The sample was centrifuged and the supernatant was transferred, nitrogen blow dried and reconstituted in 50% acetonitrile in water for LC/MS analysis.
as §2, §1, §3
For metabolite quantitation, the flow rate was maintained at 0.25 mL/min and the total run time was 60 min. Analytes were separated using a linear gradient as follows: • 1. mobile phase was held for 5 min at 5% B, • 2. […]

[7] = 40° C./75% RH for one week, sodium salt

With Cc1noc(-c2ccc(-c3ccc(C4(C(=O)[O-])CC4)cc3)cc2)c1NC(=O)O[C@H](C)c1ccccc1.[Na+] [Amorphous Compound 2, 1-{4′-[3-methyl-4-((R)-1-phenyl-ethoxycarbonylamino)-isoxazol-5-yl]-biphenyl-4-yl}-cyclopropanecarboxylic acid, sodium salt] the “change of form after GVS analysis (XRPD)” value [1] was “No change of form is observed”, the “mass gain between 0% and 90% relative humidity” value ([1]; 25° C.) was “more than 20%” and the “XRPD / solid form after storage” value [2, 7] was “remains largely amorphous”.

With Cc1noc(-c2ccc(-c3ccc(C4(C(=O)[O-])CC4)cc3)cc2)c1NC(=O)O[C@H](C)c1ccccc1.[Na+] [Compound 2 (Amorphous)] the solubility at 2 h ([3]; Target pH 3, pH adjusted with HCl or NaOH) was < 1 µg/mL, the solubility at 2 h ([3]; Target pH 4, pH adjusted with HCl or NaOH) was < 1 µg/mL and the solubility at 2 h ([3]; Target pH 5, pH adjusted with HCl or NaOH) was < 1 µg/mL. For the same compound, the solubility at 2 h ([3]; Target pH 6, pH adjusted with HCl or NaOH) was 1.7 µg/mL, the solubility at 2 h ([3]; Target pH 7, pH adjusted with HCl or NaOH) was 300 µg/mL and the solubility at 2 h ([3]; Target pH 8, pH adjusted with HCl or NaOH) was 5600 µg/mL. It also gave a solubility at 2 h ([3]; Target pH 9, pH adjusted with HCl or NaOH) of 17000 µg/mL and a solubility at 2 h ([3]; Target pH 11, pH adjusted with HCl or NaOH) of 16000 µg/mL.

With Cc1noc(-c2ccc(-c3ccc(C4(C(=O)ON[C@H](C=O)CCC(=O)O)CC4)cc3)cc2)c1NC(=O)O[C@H](C)c1ccccc1 [Compound M1] the “metabolite observed in rat bile” value [4] was “major metabolites”, the “metabolite observed in hepatocytes” value [5] was “major metabolites” and the “metabolite observed in liver microsomes” value [6] was “major metabolites”.

In the case of Cc1noc(-c2ccc(-c3ccc(C4(C(=O)O)CC4)cc3)cc2)c1NC(=O)O[C@H](C)c1cccc(O)c1 [Compound M4], the “metabolite observed in rat bile” value [4] is reported as “observed”, the “metabolite observed in hepatocytes” value [5] is reported as “observed” and the “metabolite observed in liver microsomes” value [6] is reported as “observed”.

In the case of Cc1noc(-c2ccc(-c3ccc(C4(C(=O)[O-])CC4)cc3)cc2)c1NC(=O)O[C@H](C)c1ccccc1.[Na+] [Crystalline Compound 2 (Pattern 1), 1-{4′-[3-methyl-4-((R)-1-phenyl-ethoxycarbonylamino)-isoxazol-5-yl]-biphenyl-4-yl}-cyclopropanecarboxylic acid, sodium salt], the “hygroscopicity (comparison)” value [1] is reported as “lower hygroscopicity than its amorphous counterpart”, the “XRPD / solid form after storage” value ([2]; 25° C./95% RH, a week) is reported as “no loss of crystallinity” and the “XRPD / solid form after storage” value [2, 7] is reported as “no loss of crystallinity”.

Reference: patent US20170121295A1, “POLYCYCLIC LPA1 ANTAGONIST AND USES THEREOF” (AMIRA PHARMACEUTICALS, INC., priority 2010, published 2017)
